tested on: batrachotoxin (BTX) binding site of the sodium channel; assay: Affinity to the batrachotoxin (BTX) binding site of the sodium channel; design: species or system rat; settings: [3H]-batrachotoxinin A20 α-benzoate 10 nM; synaptosomes from rat cerebral cortex; test concentration not given

Compared with `CCCCN(C(=O)c1cccc(Cl)c1)c1nc2n(c1C(=O)N1CCC(O)(c3cccc(C(F)(F)F)c3)CC1)CCCC2` [Example 175, N-butyl-3-chloro-N-{3-[4-hydroxy-4-(3-trifluoromethyl-phenyl)-piperidine-1-carbonyl]-5,6,7,8-tetrahydro-imidazo[1,2-a]pyridin-2-yl}-benzamide], `CCCCN(C(=O)c1cccc(Cl)c1)c1nc2n(c1C(=O)N1CCN(c3ccccc3F)CC1)CCCC2` [Example 48, N-butyl-3-chloro-N-{3-[4-(2-fluoro-phenyl)-piperazine-1-carbonyl]-5,6,7,8-tetrahydro-imidazo[1,2-a]pyridin-2-yl}-benzamide] is higher in “BTX inhibition (rat) (% inhibition)” value: 65% for the first, 89% for the second.

First: CN(C(=O)Cc1ccccc1)c1nc2n(c1C(=O)N(C)C1CCN(Cc3ccc(-c4ccccc4)cc3)C1)CCCC2 (centres unmarked) [Example 168, 2-(methyl-phenylacetyl-amino)-5,6,7,8-tetrahydro-imidazo[1,2-a]pyridine-3-carboxylic acid (1-biphenyl-4-ylmethyl-pyrrolidin-3-yl)-methyl-amide]
Second: CN(C(=O)Cc1ccccc1)c1nc2n(c1C(=O)N1CCN(CCCc3ccccc3)CC1)CCCC2 [Example 176, N-methyl-2-phenyl-N-{3-[4-(3-phenyl-propyl)-piperazine-1-carbonyl]-5,6,7,8-tetrahydro-imidazo[1,2-a]pyridin-2-yl}-acetamide]
The “BTX inhibition (rat) (% inhibition)” value of the first is higher: 92% for the first, 71% for the second.

Compared with `CCc1ccccc1N1CCN(C(=O)c2c(N(C)C(=O)c3cccc4ccccc34)nc3n2CCCC3)CC1` [Example 136, naphthalene-1-carboxylic acid {3-[4-(2-ethyl-phenyl)-piperazine-1-carbonyl]-5,6,7,8-tetrahydro-imidazo[1,2-a]pyridin-2-yl}-methyl-amide], `CN(C(=O)c1cccc2ccccc12)c1nc2n(c1C(=O)N1CCN(c3ccccc3Cl)CC1)CCCC2` [Example 148, naphthalene-1-carboxylic acid {3-[4-(2-chloro-phenyl)-piperazine-1-carbonyl]-5,6,7,8-tetrahydro-imidazo[1,2-a]pyridin-2-yl}-methyl-amide] is lower in “BTX inhibition (rat) (% inhibition)” value: 54% for the first, 35% for the second.

Going from `CCc1ccccc1N1CCN(C(=O)c2c(N(C)C(=O)c3ccccc3)nc3n2CCCC3)CC1` [Example 3, N-{3-[4-(2-ethyl-phenyl)-piperazine-1-carbonyl]-5,6,7,8-tetrahydro-imidazo[1,2-a]pyridin-2-yl}-N-methyl-benzamide] to `CN(C(=O)c1cccc(Cl)c1)c1nc2n(c1C(=O)N1CCN(CCc3ccccc3)CC1)CCCC2` [Example 106, 3-chloro-N-methyl-N-[3-(4-phenethyl-piperazine-1-carbonyl)-5,6,7,8-tetrahydro-imidazo[1,2-a]pyridin-2-yl]-benzamide], the “BTX inhibition (rat) (% inhibition)” value rises from 34% to 40%.

Compared with `CCCCN(C(=O)c1cccc(Cl)c1)c1nc2n(c1C(=O)NCc1cccc(F)c1)CCCC2` [Example 158, 2-[butyl-(3-chloro-benzoyl)-amino]-5,6,7,8-tetrahydro-imidazo[1,2-a]pyridine-3-carboxylic acid 3-fluoro-benzylamide], `CCCCN(C(=O)c1cccc(Cl)c1)c1nc2n(c1C(=O)NC(C)CCc1ccccc1)CCCC2` (centres unmarked) [Example 145, 2-[butyl-(3-chloro-benzoyl)-amino]-5,6,7,8-tetrahydro-imidazo[1,2-a]pyridine-3-carboxylic acid (1-methyl-3-phenyl-propyl)-amide] is higher in “BTX inhibition (rat) (% inhibition)” value: 33% for the first, 67% for the second.

Compared with `CCCCN(C(=O)c1cccc(Cl)c1)c1nc2n(c1C(=O)NC1CCN(Cc3cc(OC)c(OC)cc3Br)C1)CCCC2` (centres unmarked) [Example 172, 2-[butyl-(3-chloro-benzoyl)-amino]-5,6,7,8-tetrahydro-imidazo[1,2-a]pyridine-3-carboxylic acid [1-(2-bromo-4,5-dimethoxy-benzyl)-pyrrolidin-3-yl]-amide], `CCCCN(C(=O)c1cccc(Cl)c1)c1nc2n(c1C(=O)NCCN1CCCC1)CCCC2` [Example 58, 2-[butyl-(3-chloro-benzoyl)-amino]-5,6,7,8-tetrahydro-imidazo[1,2-a]pyridine-3-carboxylic acid (2-pyrrolidin-1-yl-ethyl)-amide] is lower in “BTX inhibition (rat) (% inhibition)” value: 96% for the first, 50% for the second.

Compared with `CN(C(=O)c1cccc(Cl)c1)c1nc2n(c1C(=O)N1CC=C(c3ccc(F)cc3)CC1)CCCC2` [Example 61, 3-chloro-N-{3-[4-(4-fluorophenyl)-3,6-dihydro-2H-pyridine-1-carbonyl]-5,6,7,8-tetrahydro-imidazo[1,2-a]pyridin-2-yl}-N-methyl-benzamide], `CN(C(=O)c1cccc(Cl)c1)c1nc2n(c1C(=O)N1CCN(Cc3ccc4c(c3)OCO4)CC1)CCCC2` [Example 45, N-[3-(4-benzo[1,3]dioxol-5-ylmethyl-piperazine-1-carbonyl)-5,6,7,8-tetrahydro-imidazo[1,2-a]pyridin-2-yl]-3-chloro-N-methyl-benzamide] is higher in “BTX inhibition (rat) (% inhibition)” value: 38% for the first, 41% for the second.

Going from `CCCCN(C(=O)c1cccc(Cl)c1)c1nc2n(c1C(=O)Nc1ccc(C(C)(C)C)cc1)CCCC2` [Example 152, 2-[butyl-(3-chloro-benzoyl)-amino]-5,6,7,8-tetrahydro-imidazo[1,2-a]pyridine-3-carboxylic acid (4-tert-butyl-phenyl)-amide] to `CCCCN(C(=O)c1cccc(Cl)c1)c1nc2n(c1C(=O)NC(c1ccccc1)c1ccccc1)CCCC2` [Example 147, 2-[butyl-(3-chloro-benzoyl)-amino]-5,6,7,8-tetrahydro-imidazo[1,2-a]pyridine-3-carboxylic acid benzhydryl-amide], the “BTX inhibition (rat) (% inhibition)” value falls from 92% to 56%.

First: CCCCN(C(=O)c1ccc(F)c(F)c1)c1nc2n(c1C(=O)N1CCN(C(c3ccccc3)c3ccccc3)CC1)CCCC2 [Example 56, N-[3-(4-benzhydryl-piperazine-1-carbonyl)-5,6,7,8-tetrahydro-imidazo[1,2-a]pyridin-2-yl]-N-butyl-3,4-difluoro-benzamide]
Second: CCCCN(C(=O)c1ccc(F)c(F)c1)c1nc2n(c1C(=O)NCCC(c1ccccc1)c1ccccc1)CCCC2 [Example 180, 2-[butyl-(3,4-difluoro-benzoyl)-amino]-5,6,7,8-tetrahydro-imidazo[1,2-a]pyridine-3-carboxylic acid (3,3-diphenyl-propyl)-amide]
The “BTX inhibition (rat) (% inhibition)” value of the first is higher: 65% for the first, 62% for the second.

Compared with `CN(C(=O)c1cccc2ccccc12)c1nc2n(c1C(=O)N1CCN(Cc3cc4ccccc4o3)CC1)CCCC2` [Example 108, naphthalene-1-carboxylic acid [3-(4-benzofuran-2-ylmethyl-piperazine-1-carbonyl)-5,6,7,8-tetrahydro-imidazo[1,2-a]pyridin-2-yl]-methyl-amide], `CN(C(=O)c1cccc2ccccc12)c1nc2n(c1C(=O)Nc1ccc(Oc3ccccc3)cc1)CCCC2` [Example 185, 2-[methyl-(naphthalene-1-carbonyl)-amino]-5,6,7,8-tetrahydro-imidazo[1,2-a]pyridine-3-carboxylic acid (4-phenoxy-phenyl)-amide] is higher in “BTX inhibition (rat) (% inhibition)” value: 41% for the first, 74% for the second.

Going from `CN(C(=O)c1ccccc1)c1nc2n(c1C(=O)NCc1ccc(Cl)cc1)CCCC2` [Example 157, 2-(benzoyl-methyl-amino)-5,6,7,8-tetrahydro-imidazo[1,2-a]pyridine-3-carboxylic acid 4-chloro-benzylamide] to `CN(C(=O)c1cccc(Cl)c1)c1nc2n(c1C(=O)NC1CCCCC1OCc1ccccc1)CCCC2` (centres unmarked) [Example 67, 2-[(3-chloro-benzoyl)-methyl-amino]-5,6,7,8-tetrahydro-imidazo[1,2-a]pyridine-3-carboxylic acid (2-benzyloxy-cyclohexyl)-amide], the “BTX inhibition (rat) (% inhibition)” value rises from 43% to 51%.

Going from `CCCCN(C(=O)c1ccc(F)c(F)c1)c1nc2n(c1C(=O)NC1CCC(C)CC1)CCCC2` (centres unmarked) [Example 16, 2-[butyl-(3,4-difluoro-benzoyl)-amino]-5,6,7,8-tetrahydro-imidazo[1,2-a]pyridine-3-carboxylic acid (4-methyl-cyclohexyl)-amide] to `CCCCN(C(=O)c1ccc(F)c(F)c1)c1nc2n(c1C(=O)NCCCc1ccccc1)CCCC2` [Example 28, 2-[butyl-(3,4-difluoro-benzoyl)-amino]-5,6,7,8-tetrahydro-imidazo[1,2-a]pyridine-3-carboxylic acid (3-phenyl-propyl)-amide], the “BTX inhibition (rat) (% inhibition)” value falls from 47% to 42%.

Going from `CCCCN(C(=O)c1ccc(F)c(F)c1)c1nc2n(c1C(=O)NCc1ccccc1OC(F)(F)F)CCCC2` [Example 88, 2-[butyl-(3,4-difluoro-benzoyl)-amino]-5,6,7,8-tetrahydro-imidazo[1,2-a]pyridine-3-carboxylic acid 2-trifluoromethoxy-benzylamide] to `CCCCN(C(=O)c1ccc(F)c(F)c1)c1nc2n(c1C(=O)NCC1COc3ccccc3O1)CCCC2` (centres unmarked) [Example 96, 2-[butyl-(3,4-difluoro-benzoyl)-amino]-5,6,7,8-tetrahydro-imidazo[1,2-a]pyridine-3-carboxylic acid (2,3-dihydro-benzo[1,4]dioxin-2-ylmethyl)-amide], the “BTX inhibition (rat) (% inhibition)” value rises from 31% to 33%.

Going from `CCCCN(C(=O)c1ccc(F)c(F)c1)c1nc2n(c1C(=O)N1CCN(c3cc(C)ccc3C)CC1)CCCC2` [Example 138, N-butyl-N-{3-[4-(2,5-dimethyl-phenyl)-piperazine-1-carbonyl]-5,6,7,8-tetrahydro-imidazo[1,2-a]pyridin-2-yl}-3,4-difluoro-benzamide] to `CCCCN(C(=O)c1cccc(Cl)c1)c1nc2n(c1C(=O)N1CCN(Cc3ccc(Cl)cc3)CC1)CCCC2` [Example 140, N-butyl-3-chloro-N-{3-[4-(4-chloro-benzyl)-piperazine-1-carbonyl]-5,6,7,8-tetrahydro-imidazo[1,2-a]pyridin-2-yl}-benzamide], the “BTX inhibition (rat) (% inhibition)” value rises from 80% to 81%.

With `CN(C(=O)c1cccc(Cl)c1)c1nc2n(c1C(=O)NC1CCN(Cc3c(Cl)cccc3Cl)C1)CCCC2` (centres unmarked) [Example 83, 2-[(3-chloro-benzoyl)-methyl-amino]-5,6,7,8-tetrahydro-imidazo[1,2-a]pyridine-3-carboxylic acid [1-(2,6-dichlor-benzyl)-pyrrolidin-3-yl]-amide] the “BTX inhibition (rat) (% inhibition)” value was 80%.

Reference: patent US7829568B2, “Substituted 5,6,7,8-tetrahydroimidazo[1,2-a]pyridin-2-ylamine compounds and their use for producing drugs” (Gruenenthal GmbH, priority 2005, dated 2010)
